In ChEMBL document CHEMBL1129402, “Structure-based design of HIV protease inhibitors: 5,6-dihydro-4-hydroxy-2-pyrones as effective, nonpeptidic inhibitors” (J Med Chem, 1996):
pIC50, pKi: −log10 of the molar value.

Target: Human immunodeficiency virus type 1 protease (Human immunodeficiency virus 1, UniProt Q72874)
Assay: HIV Protease inhibitory activity

Point of comparison: `CCCC1(CCc2ccccc2)CC(=O)C(C(c2ccccc2)C2CCCC2)=C(O)O1` (centres undefined), pKi 7.23. Against it:
- CCCC1(c2ccccc2)CC(=O)C(C(CC)c2ccccc2)=C(O)O1 (centres undefined) — 0.21 log units lower, 7.02
- CCC(C1=C(O)OC(CC)(c2ccccc2)CC1=O)c1ccccc1 (centres undefined) — 0.43 log units lower, 6.80
- CCCC1(CCc2ccccc2)CC(=O)C(C(c2ccccc2)C2CC2)=C(O)O1 (centres undefined) — within 0.2 log units, 7.19
- CCC(C1=C(O)OC(c2ccccc2)(C2CCCCC2)CC1=O)c1cccc(O)c1 (centres undefined) — 1.02 log units lower, 6.21
- CCCC1(CCc2ccccc2)CC(=O)C(C(CC)c2ccccc2)=C(O)O1 (centres undefined) — 0.23 log units higher, 7.46
- C=CC(C1=C(O)OC(CCC)(CCc2ccccc2)CC1=O)c1ccccc1 (centres undefined) — 0.57 log units higher, 7.80
- CCCC1(CCC)CC(=O)C(C(c2ccccc2)C2CCCC2)=C(O)O1 (centres undefined) — within 0.2 log units, 7.41
- CCCC1(CCc2ccccc2)CC(=O)C(C(/C=C/c2ccccc2)c2ccccc2)=C(O)O1 (centres undefined) — within 0.2 log units, 7.30
- CCCC1(CCC)CC(=O)C(C(CC)c2ccccc2)=C(O)O1 (centres undefined) — 0.43 log units higher, 7.66
- CCCC1(CCc2ccccc2)CC(=O)C(C(CCc2ccccc2)c2ccccc2)=C(O)O1 (centres undefined) — 0.25 log units higher, 7.48
- CCCC1(CCC)CC(O)=C(C(c2ccccc2)C2CC2)C(=O)O1 (centres undefined) — 0.59 log units higher, 7.82

Point of comparison: `CCCCC1(Cc2ccccc2)CC(=O)C(C(CC)c2ccccc2)=C(O)O1` (centres undefined), pIC50 5.52. Against it:
- CCC(C1=C(O)OC2(CCCCCCC2)CC1=O)c1ccccc1 (centres undefined) — the same, 5.52
- CCC(C1=C(O)OC2(CCC(=O)CC2)CC1=O)c1ccccc1 (centres undefined) — not separable, < 6.00
- CCC(C1=C(O)OC(CC(C)C)(CC(C)C)CC1=O)c1ccccc1 (centres undefined) — 1.40 log units lower, 4.12
- CCC(C1=C(O)OC(Cc2ccccc2)(Cc2ccccc2)CC1=O)c1ccccc1 (centres undefined) — lower, < 5.00
- CCC(C1=C(O)OC(Cc2ccccc2)(c2ccccc2)CC1=O)c1ccccc1 (centres undefined) — lower, < 5.00
- CCC(C1=C(O)OC2(CCCCC2)CC1=O)c1ccccc1 (centres undefined) — 0.59 log units higher, 6.11
- C=CC(C1=C(O)OC2(CCCCC2Cc2ccccc2)CC1=O)c1ccccc1 (centres undefined) — not separable, < 6.00
- C=CC(C1=C(O)OC2(CCOCC2)CC1=O)c1ccccc1 (centres undefined) — lower, < 5.00
- C=CC(C1=C(O)OC2(CCCCCC2)CC1=O)c1ccccc1 (centres undefined) — not separable, < 6.00
- C=CC(C1=C(O)OC2(CCCC2)CC1=O)c1ccccc1 (centres undefined) — the same, 5.52
- CCCC1(CCC)CC(=O)C(C(c2ccccc2)C(C)(C)C)=C(O)O1 (centres undefined) — not separable, < 6.00
